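1) Cells in 96-well plates. 2) Compound, 48 h, 5 concentrations. 3) Linear interpolation between surrounding doses. 4) Unreached endpoint = highest concentration. GI50 is the concentration that inhibits growth by half.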 Calls of active or inactive are those of the source. No stated cut-off is given here; in the data, active = GI50 up to about 1.1 µM and inactive = higher.
Legend:
Test in all cases: NCI anticancer screen, dose series, 48 h
[1] = system: M14
[2] = system: DMS-273
[3] = system: TK-10
[4] = system: A498
[5] = system: DMS-114
[6] = system: EKVX
[7] = system: SNB-19
[8] = system: HL-60
[9] = system: KM12
[10] = system: RPMI-8226
[11] = system: OVCAR-4
[12] = system: OVCAR-3
[13] = system: HT-29
[14] = system: COLO 205
[15] = system: HOP-62
[16] = system: HCT-116
[17] = system: NCI-H460
[18] = system: 786-0
[19] = system: HOP-18
[20] = system: HCC 2998
[21] = system: NCI-H226
[22] = system: SK-MEL-5
[23] = system: U-251
[24] = system: ACHN
[25] = system: SK-MEL-28
[26] = system: XF498
[27] = system: UACC-257
[28] = system: HCT-15
[29] = system: SW-620
[30] = system: SN12C
[31] = system: LOX IMVI
[32] = system: HOP-92
[33] = system: SF-295
[34] = system: SNB-78
[35] = system: CCRF-CEM
[36] = system: NCI-H522
[37] = system: NCI-H23
[38] = system: K562
[39] = system: MOLT-4
[40] = system: UACC-62
[41] = system: A549
[42] = system: SF-539
[43] = system: IGROV-1
[44] = system: SNB-75
[45] = system: UO-31
[46] = system: RXF 393
[47] = system: SF-268
[48] = system: Malme-3M
[49] = system: RXF 631
[50] = system: SK-OV-3
[51] = system: SK-MEL-2
[52] = system: M19-MEL
[53] = system: OVCAR-8
[54] = system: KM-20L2
[55] = system: LXFL 529
[56] = system: DLD-1
[57] = system: CAKI-1
[58] = system: OVCAR-5
[59] = system: SR

## C=C(C)CCN[Si](c1ccccc1)(c1ccccc1)C(C)(C)C
[1]
  GI50: 18.9 µM (inactive)
[2]
  GI50: 18.8 µM (inactive)
[3]
  GI50: 22.5 µM (inactive)
[4]
  GI50: 28.9 µM (inactive)
[5]
  GI50: 21.7 µM (inactive)
[6]
  GI50: 22.1 µM (inactive)
[7]
  GI50: 18.4 µM (inactive)
[8]
  GI50: 20.1 µM (inactive)
[9]
  GI50: 18.5 µM (inactive)
[10]
  GI50: 24 µM (inactive)
[11]
  GI50: 19 µM (inactive)
[12]
  GI50: 17.6 µM (inactive)
[13]
  GI50: 16.6 µM (inactive)
[14]
  GI50: 18.5 µM (inactive)
[15]
  GI50: 17.1 µM (inactive)
[16]
  GI50: 14.6 µM (inactive)
[17]
  GI50: 29 µM (inactive)
[18]
  GI50: 16.6 µM (inactive)
[19]
  GI50: 17.2 µM (inactive)
[20]
  GI50: 21.1 µM (inactive)
[21]
  GI50: 12.1 µM (inactive)
[22]
  GI50: 19 µM (inactive)
[23]
  GI50: 15.4 µM (inactive)
[24]
  GI50: 26 µM (inactive)
[25]
  GI50: 20.3 µM (inactive)
[26]
  GI50: 24.5 µM (inactive)
[27]
  GI50: 15.7 µM (inactive)
[28]
  GI50: 21.9 µM
[29]
  GI50: 40 µM (inactive)
[30]
  GI50: 18.2 µM (inactive)
[31]
  GI50: 17.8 µM (inactive)
[32]
  GI50: 18.2 µM (inactive)
[33]
  GI50: 19.3 µM (inactive)
[34]
  GI50: 25.1 µM (inactive)
[35]
  GI50: 25.8 µM (inactive)
[36]
  GI50: 18.1 µM (inactive)
[37]
  GI50: 19.4 µM (inactive)
[38]
  GI50: 24.1 µM (inactive)
[39]
  GI50: 18.7 µM (inactive)
[40]
  GI50: 17 µM (inactive)
[41]
  GI50: 24.1 µM (inactive)
[42]
  GI50: 15.6 µM (inactive)
[43]
  GI50: 27.1 µM (inactive)
[44]
  GI50: 28.5 µM (inactive)
[45]
  GI50: 13.7 µM (inactive)
[46]
  GI50: 15.3 µM (inactive)
[47]
  GI50: 30.5 µM (inactive)
[48]
  GI50: 20.5 µM (inactive)
[49]
  GI50: 20.2 µM (inactive)
[50]
  GI50: 32.3 µM (inactive)
[51]
  GI50: 15.2 µM (inactive)
[52]
  GI50: 20.5 µM (inactive)
[53]
  GI50: 19.6 µM (inactive)
[54]
  GI50: 17.9 µM (inactive)

## COC(=O)/C(C#N)=C1\NN=NN1c1ccc(OC)cc1
[1]
  GI50: > 100 µM (inactive)
[2]
  GI50: > 100 µM (inactive)
[3]
  GI50: > 100 µM (inactive)
[4]
  GI50: > 100 µM (inactive)
[5]
  GI50: > 100 µM (inactive)
[6]
  GI50: > 100 µM (inactive)
[7]
  GI50: > 100 µM (inactive)
[9]
  GI50: > 100 µM (inactive)
[10]
  GI50: > 100 µM (inactive)
[12]
  GI50: > 100 µM (inactive)
[13]
  GI50: > 100 µM (inactive)
[14]
  GI50: > 100 µM (inactive)
[16]
  GI50: > 100 µM (inactive)
[17]
  GI50: > 100 µM (inactive)
[18]
  GI50: > 100 µM (inactive)
[55]
  GI50: > 100 µM (inactive)
[19]
  GI50: > 100 µM (inactive)
[20]
  GI50: > 100 µM (inactive)
[21]
  GI50: > 100 µM (inactive)
[22]
  GI50: > 100 µM (inactive)
[23]
  GI50: > 100 µM (inactive)
[24]
  GI50: > 100 µM (inactive)
[25]
  GI50: > 100 µM (inactive)
[27]
  GI50: > 100 µM (inactive)
[28]
  GI50: > 100 µM
[29]
  GI50: > 100 µM (inactive)
[30]
  GI50: > 100 µM (inactive)
[31]
  GI50: > 100 µM (inactive)
[32]
  GI50: > 100 µM (inactive)
[33]
  GI50: > 100 µM (inactive)
[34]
  GI50: > 100 µM (inactive)
[35]
  GI50: > 100 µM (inactive)
[36]
  GI50: > 100 µM (inactive)
[37]
  GI50: > 100 µM (inactive)
[38]
  GI50: > 100 µM (inactive)
[56]
  GI50: > 100 µM (inactive)
[39]
  GI50: > 100 µM (inactive)
[40]
  GI50: > 100 µM (inactive)
[41]
  GI50: > 100 µM (inactive)
[42]
  GI50: > 100 µM (inactive)
[43]
  GI50: > 100 µM (inactive)
[44]
  GI50: > 100 µM (inactive)
[45]
  GI50: > 100 µM (inactive)
[46]
  GI50: > 100 µM (inactive)
[48]
  GI50: > 100 µM (inactive)
[49]
  GI50: > 100 µM (inactive)
[50]
  GI50: > 100 µM (inactive)
[52]
  GI50: > 100 µM (inactive)
[57]
  GI50: > 100 µM (inactive)
[53]
  GI50: > 100 µM (inactive)

## CC(C)=NNC(=S)NC12CC3CC(CC(C3)C1)C2
[1]
  GI50: > 100 µM (inactive)
[2]
  GI50: > 100 µM (inactive)
[3]
  GI50: > 100 µM (inactive)
[4]
  GI50: > 100 µM (inactive)
[6]
  GI50: > 100 µM (inactive)
[7]
  GI50: > 100 µM (inactive)
[8]
  GI50: > 100 µM (inactive)
[9]
  GI50: > 100 µM (inactive)
[10]
  GI50: > 100 µM (inactive)
[11]
  GI50: > 100 µM (inactive)
[12]
  GI50: > 100 µM (inactive)
[13]
  GI50: > 100 µM (inactive)
[14]
  GI50: > 100 µM (inactive)
[15]
  GI50: > 100 µM (inactive)
[16]
  GI50: > 100 µM (inactive)
[17]
  GI50: > 100 µM (inactive)
[18]
  GI50: > 100 µM (inactive)
[55]
  GI50: > 100 µM (inactive)
[21]
  GI50: > 100 µM (inactive)
[22]
  GI50: > 100 µM (inactive)
[23]
  GI50: > 100 µM (inactive)
[24]
  GI50: > 100 µM (inactive)
[25]
  GI50: > 100 µM (inactive)
[58]
  GI50: > 100 µM (inactive)
[26]
  GI50: > 100 µM (inactive)
[27]
  GI50: > 100 µM (inactive)
[28]
  GI50: > 100 µM
[29]
  GI50: > 100 µM (inactive)
[30]
  GI50: > 100 µM (inactive)
[31]
  GI50: > 100 µM (inactive)
[59]
  GI50: > 100 µM (inactive)
[32]
  GI50: > 100 µM (inactive)
[33]
  GI50: > 100 µM (inactive)
[34]
  GI50: > 100 µM (inactive)
[35]
  GI50: > 100 µM (inactive)
[36]
  GI50: > 100 µM (inactive)
[37]
  GI50: > 100 µM (inactive)
[38]
  GI50: > 100 µM (inactive)
[39]
  GI50: > 100 µM (inactive)
[40]
  GI50: > 100 µM (inactive)
[41]
  GI50: > 100 µM (inactive)
[42]
  GI50: > 100 µM (inactive)
[43]
  GI50: > 100 µM (inactive)
[44]
  GI50: > 100 µM (inactive)
[45]
  GI50: > 100 µM (inactive)
[46]
  GI50: > 100 µM (inactive)
[47]
  GI50: > 100 µM (inactive)
[49]
  GI50: > 100 µM (inactive)
[50]
  GI50: > 100 µM (inactive)
[51]
  GI50: > 100 µM (inactive)
[52]
  GI50: > 100 µM (inactive)
[57]
  GI50: > 100 µM (inactive)
[53]
  GI50: > 100 µM (inactive)
[54]
  GI50: > 100 µM (inactive)

From ChEMBL document CHEMBL1201862, “PubChem BioAssay data set” (2004)
